Where two headings read alike, the source gives them in different places.
System: erythrocytes infected with 3D7 trophozoites
Assay type: cell-based, Plasmodium falciparum

## COc1ccc2c(c1)OC(O)(C(F)(F)C(F)(F)F)CC2=O (stereo not shown) [MMV007839]
6 μM
  Intracellular NADH level, treated vs untreated: decreased
  Intracellular orotate level, treated vs untreated: decreased
  Intracellular orotidine-5-phosphate level, treated vs untreated: decreased
  Intracellular pyruvate level, treated vs untreated: significant elevation
  Intracellular sn-glycerol-3-phosphate level, treated vs untreated: significant elevation
6 μM, at each time point (1 h, 3 h, 6 h)
  Increase in lactate abundance in treated relative to untreated infected erythrocytes: 6 fold
1hr
  1-3 (2-3)-Bisphopshateglycerate, Average: 0.8283
  2-Hydroxyglutarate, Average: -0.2432
  2-Ketoglutarate, Average: -0.436
  3-Phoshoglycerate, Average: 0.004248
  3-Phospho-serine, Average: -0.2778
  4-Aminobutanoate, Average: 1.193
  5-Phosphoribosyl-Pyrophosphate, Average: 0.3507
  6-Phosphogluconate, Average: -0.04985
  ADP, Average: -0.09347
  AMP, Average: 0.1805
  ATLS, Average: 0.06136
  ATP, Average: -0.05715
  Acetyl-CoA, Average: -0.4647
  Acetyl-L-alanine, Average: 0.1907
  Adenine, Average: -0.6208
  Arginine, Average: 0.574
  Asparagine, Average: 0.04802
  Aspartate, Average: 0.001665
  CDP, Average: -0.01089
  CDP-ethanolamine, Average: 0.2765
  CMP, Average: 0.1684
  CTP, Average: -0.2804
  Cholesteryl sulfate, Average: -0.2972
  Citrate, Average: -0.1229
  CoA, Average: -0.4384
  Cyclic AMP, Average: -0.8135
  Cytidine, Average: -0.7749
  DALT, Average: -0.5028
  DEVG, Average: 0.001555
  DGLA, Average: -0.4525
  DLS, Average: -0.423
  Deoxycytidine, Average: 1.92
  Dihydroorotate, Average: -0.5278
  ESFG, Average: 0.4045
  EVGG, Average: 0.01776
  Erythrose 4-Phosphate, Average: -0.3514
  FAD, Average: -0.08791
  FMN, Average: -0.2425
  Farnesyl diphosphate, Average: -0.0002912
  Folate, Average: -0.2316
  Fructose-1-6-Bisphosphate, Average: 1.122
  Fructose-6-Phosphate, Average: 0.08818
  GDP, Average: -0.6846
  GDP-mannose, Average: 0.01571
  GMP, Average: -1.125
  GTP, Average: -0.5732
  Geranylgeranyl pyrophosphate, Average: -0.5786
  Glucono-1-4-Lactone, Average: 1.593
  Glucose-6-Phosphate, Average: -0.1863
  Glutamate, Average: 0.1005
  Glutamine, Average: 0.7703
  Glutathione Disulfide, Average: 0.1943
  Glutathione, Average: -0.1919
  Glyceraldehyde 3-Phosphate, Average: -0.7606
  Glycerone Phosphate, Average: 0.5926
  HLD, Average: -0.3486
  HVDD, Average: -0.6691
  Histidine, Average: 0.5758
  Homoserine, Average: 0.3097
  Hydroxy-L-proline, Average: 0.2443
  Hypoxanthine, Average: 0.3704
  IDP, Average: -0.1758
  IMP, Average: -0.02277
  Inosine, Average: 0.5137
  Isoleucine, Average: 0.3056
  LD, Average: 0.3825
  Lactate, Average: 2.358
  Leucine, Average: 0.1553
  Lysine, Average: 1.68
  Malate, Average: 0.1358
  Mannitol, Average: 0.0108
  Methionine, Average: 0.2615
  Myristic acid, Average: 0.2261
  N-Acetyl-glutamate, Average: -0.007377
  N-Carbamoyl-L-Aspartate, Average: -1.378
  NAD+, Average: 0.03204
  NADH, Average: -1.36
  NADP+, Average: -0.2617
  Ornithine, Average: 0.2172
  Orotate, Average: -1.216
  Orotidine 5-Phosphate, Average: -1.5
  Orotidine, Average: -0.4366
  PAEF, Average: -0.4364
  PD, Average: 0.2765
  PDAV, Average: 0.344
  PE, Average: 1.21
  PEE, Average: 0.2418
  PHF, Average: 1.069
  PPVQ, Average: 0.02129
  PVNF, Average: -0.3384
  PVQ, Average: 0.8749
  PVQA, Average: -0.7385
  Pantothenate, Average: -0.01312
  Phenylalanine, Average: 0.1979
  Phosphoenolpyruvate, Average: 0.299
  Pipecolate, Average: 0.4539
  Proline, Average: 0.1646
  Pyridoxine, Average: 0.1656
  Pyruvate, Average: 1.42
  Ribose-5-Phosphate, Average: 0.9115
  S-Adenosyl-L-homocysteine, Average: -0.1282
  SDGLA, Average: -0.148
  SFGD, Average: -0.0354
  Sedoheptulose-1/7-Phosphate, Average: 0.1578
  Serine, Average: 0.004434
  Succinate Semialdehyde, Average: -0.3802
  Succinate, Average: 0.4975
  TNVK, Average: -0.9736
  Threonine, Average: 0.4202
  Tryptophan, Average: 0.09509
  Tyrosine, Average: 0.1697
  UDP, Average: -0.1565
  UDP-N-acetyl-D-glucosamine, Average: 0.0845
  UDP-glucose, Average: -0.08513
  UMP, Average: -0.3602
  Uracil, Average: -0.4869
  Valine, Average: 0.1364
  Xanthine, Average: 0.3309
  dADP, Average: -0.3244
  dATP, Average: 0.05147
  dCDP, Average: 0.3024
  dGMP, Average: 0.08489
  dTMP, Average: -0.02247
  dTTP, Average: 0.2046
  dUMP, Average: 1.26
  myo-Inositol, Average: -0.07002
  sn-Glycerol 3-Phosphate, Average: 1.379
  sn-glycero-3-Phospho-1-inositol, Average: -0.128
3hr
  1-3 (2-3)-Bisphopshateglycerate, Average: 0.8355
  2-Hydroxyglutarate, Average: -0.6103
  2-Ketoglutarate, Average: -0.8232
  3-Phoshoglycerate, Average: 0.07426
  3-Phospho-serine, Average: -0.4035
  4-Aminobutanoate, Average: 0.8488
  5-Phosphoribosyl-Pyrophosphate, Average: 0.5077
  6-Phosphogluconate, Average: -0.2282
  ADP, Average: -0.7166
  AMP, Average: -0.5704
  ATLS, Average: -0.2347
  ATP, Average: -0.2177
  Acetyl-CoA, Average: -0.7235
  Acetyl-L-alanine, Average: -0.3599
  Adenine, Average: -0.8446
  Arginine, Average: 0.2396
  Asparagine, Average: -0.1753
  Aspartate, Average: -0.3736
  CDP, Average: -0.5752
  CDP-ethanolamine, Average: 0.02366
  CMP, Average: -0.08882
  CTP, Average: -0.3119
  Cholesteryl sulfate, Average: -0.1335
  Citrate, Average: -0.1028
  CoA, Average: -0.556
  Cyclic AMP, Average: -0.7854
  Cytidine, Average: -0.2914
  DALT, Average: -0.8981
  DEVG, Average: -0.08263
  DGLA, Average: -0.7349
  DLS, Average: -0.6175
  Deoxycytidine, Average: 1.594
  Dihydroorotate, Average: -1.064
  ESFG, Average: -0.07747
  EVGG, Average: -0.1694
  Erythrose 4-Phosphate, Average: -0.2579
  FAD, Average: -0.4239
  FMN, Average: -0.4985
  Farnesyl diphosphate, Average: -0.04123
  Folate, Average: -0.3602
  Fructose-1-6-Bisphosphate, Average: 1.146
  Fructose-6-Phosphate, Average: 0.05598
  GDP, Average: -1.202
  GDP-mannose, Average: -0.4414
  GMP, Average: -1.665
  GTP, Average: -0.7051
  Geranylgeranyl pyrophosphate, Average: -0.6827
  Glucono-1-4-Lactone, Average: 1.992
  Glucose-6-Phosphate, Average: -0.3489
  Glutamate, Average: -0.07518
  Glutamine, Average: 0.8027
  Glutathione Disulfide, Average: -0.1266
  Glutathione, Average: -0.02749
  Glyceraldehyde 3-Phosphate, Average: -0.5897
  Glycerone Phosphate, Average: 0.4029
  HLD, Average: -0.9223
  HVDD, Average: -1.392
  Histidine, Average: 0.6908
  Homoserine, Average: 0.249
  Hydroxy-L-proline, Average: 0.1081
  Hypoxanthine, Average: 0.2683
  IDP, Average: 0.1036
  IMP, Average: -0.04113
  Inosine, Average: 0.2492
  Isoleucine, Average: 0.01345
  LD, Average: 0.008648
  Lactate, Average: 2.632
  Leucine, Average: -0.1293
  Lysine, Average: 0.8307
  Malate, Average: -0.2233
  Mannitol, Average: -0.2308
  Methionine, Average: -0.1652
  Myristic acid, Average: -0.3456
  N-Acetyl-glutamate, Average: -0.8123
  N-Carbamoyl-L-Aspartate, Average: -1.502
  NAD+, Average: 0.03216
  NADH, Average: -1.72
